Patent publication US5461059A, “Derivatives of terbutylphenyl-1-amino-4-hydroxybutane their preparation processes and the pharmaceutical compositions containing them” (priority 1990, dated 1995)
Read-outs that look alike come from different tables or passages of the source.

How the values were obtained:
[1] = format: in vivo, mice
Text: The principle of this test consists in chronometering the duration for which mice maintain itself on a rod rotating at a constant speed. Compounds which are endowed with sedative or myorelaxing or inhibitory of the motor coordination, will induce a precocious fall, before 120 seconds which are the maximals period of study. […] This test takes place 30 mn and 60 mn after administration. […] Chlorpromazine, major neuroleptic used as positive standard in the Rota-rod Test, caused the fall before the time granted, of 90% of the mice from the dosage of 4 mg/kg by intraperitoneal way.

[2] = Irwin's test (modified, Morpurgo), behaviour in mice; format: in vivo; settings: oral
Experimental: The Irwin's test, modified according to Morpurgo's Technique (1971) has been carried out to search optional alterations of the spontaneous behaviour under the action of the compound of example III or of a H1-antihistaminic of the first generation Dexchloropheniramine, known to induce some effects of drowsiness in the person. After administration by oral way, the mice have been kept under observation for 30 mn then have submitted to a seri. of simple test of behavioural screening after 30 mn, 3 hours and 24 hours.

Muscarinic M2 = biological target: T1, Muscarinic M2 (Rattus norvegicus, UniProt P10980); test: biochemical; format: binding
T1 sequence (P10980 1-466): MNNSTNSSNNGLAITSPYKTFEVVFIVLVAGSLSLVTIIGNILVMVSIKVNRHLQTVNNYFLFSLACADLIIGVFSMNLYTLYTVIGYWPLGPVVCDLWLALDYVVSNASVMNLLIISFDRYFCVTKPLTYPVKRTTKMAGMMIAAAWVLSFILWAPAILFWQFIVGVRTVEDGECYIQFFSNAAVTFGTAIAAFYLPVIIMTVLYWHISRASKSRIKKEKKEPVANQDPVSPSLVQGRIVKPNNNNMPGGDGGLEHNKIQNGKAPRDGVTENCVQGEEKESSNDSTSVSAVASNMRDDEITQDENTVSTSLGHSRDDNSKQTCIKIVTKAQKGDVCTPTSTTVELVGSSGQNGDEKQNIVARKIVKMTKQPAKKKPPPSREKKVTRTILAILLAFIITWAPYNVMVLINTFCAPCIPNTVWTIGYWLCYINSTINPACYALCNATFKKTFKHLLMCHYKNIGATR

Sigma receptor = biological target: T2, Sigma receptor (Rattus norvegicus, UniProt Q9R0C9); test: Affinity for Sigma receptors ([3H](+)3-PPP); format: binding
T2 construct: membranar receptors of various rats organs; from tissue; host or cells: rat whole brain
T2 sequence (Q9R0C9 whole entry): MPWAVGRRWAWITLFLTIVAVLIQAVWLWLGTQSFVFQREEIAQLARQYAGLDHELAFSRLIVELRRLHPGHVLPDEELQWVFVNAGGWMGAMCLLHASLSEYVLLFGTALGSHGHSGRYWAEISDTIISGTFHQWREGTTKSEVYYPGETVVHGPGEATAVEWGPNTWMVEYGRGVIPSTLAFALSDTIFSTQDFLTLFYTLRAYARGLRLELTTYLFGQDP
Experimental: (§1) A broad range of membranar receptors of various rats organs has been tested according to the same principle than the H1 receptor under the following conditions which are summarized:
Sigma receptors: whole brain, 2 hours at 22° C. in 50 mM TRIS-ClH buffer (pH 8) against 2 nM of [^3 H] (+)3-PPP (3-(3-hydroxyphenyl)N-(1-propyl) piperidine).
(§2) The more weak is the CI50, the more high is the affinity.

[3] = tested on: Central sites to benzodiazepines; test: Affinity for central sites to benzodiazepines ([3H]-Flunitrazepam); format: binding; settings: rat whole brain; 0.3 nM [3H]-Flunitrazepam, pH 7.1; read-out: CI50 (the source's name)
Experimental: Central sites to benzodiazepines: whole brain, 90 mn at 0° C. in 50 mM TRIS-ClH buffer (pH 7.1) against 0.3 nM [^3 H]-Flunitrazepam.

[4] = biological target: T3, Peripheral sites to the benzodiazepines (Rattus norvegicus, UniProt P16257); test: Affinity for peripheral sites to benzodiazepines ([3H]PK 11195); format: binding
T3 construct: membranar receptors of various rats organs; from tissue; host or cells: rat cortex
Experimental: as §1
Peripheral sites to the benzodiazepines: Cortex 90 mn at 25° C. in 90 mM PO4 HNa2 /PO4 H2 K buffer, 81 mM ClNa and […] (pH 7.4) against 1 nM [^3 H]PK 11195.
as §2

Adenosine A1 = biological target: T4, Adenosine A1 (Rattus norvegicus, UniProt P25099); test: Affinity for adenosine A1 ([3H]cyclohexyladenosine); format: binding
T4 construct: membranar receptors of various rats organs; from tissue; host or cells: rat cortex
T4 sequence (P25099 1-326): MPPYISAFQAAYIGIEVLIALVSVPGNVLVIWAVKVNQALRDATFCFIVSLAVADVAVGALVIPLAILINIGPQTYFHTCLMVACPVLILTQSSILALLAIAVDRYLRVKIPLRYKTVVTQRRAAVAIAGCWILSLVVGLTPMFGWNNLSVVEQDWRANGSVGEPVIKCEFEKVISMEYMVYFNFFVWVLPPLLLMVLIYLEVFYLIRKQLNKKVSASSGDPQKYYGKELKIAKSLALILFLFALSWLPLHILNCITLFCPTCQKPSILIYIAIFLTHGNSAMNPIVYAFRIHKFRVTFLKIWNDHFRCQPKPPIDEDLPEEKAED
Experimental: as §1
Adenosine A1: cortex, 90 mn at 25° C. in 50 mM TRIS-ClH buffer (pH 7.7) against 1 nMol of [^3 H] cyclohexyladenosine
as §2

Adenosine A2 = biological target: T5, Adenosine A2 (Rattus norvegicus, UniProt P30543); test: Affinity for adenosine A2 ([3H]NECA); format: binding
T5 construct: membranar receptors of various rats organs; from tissue; host or cells: rat striatum
T5 sequence (P30543 whole entry): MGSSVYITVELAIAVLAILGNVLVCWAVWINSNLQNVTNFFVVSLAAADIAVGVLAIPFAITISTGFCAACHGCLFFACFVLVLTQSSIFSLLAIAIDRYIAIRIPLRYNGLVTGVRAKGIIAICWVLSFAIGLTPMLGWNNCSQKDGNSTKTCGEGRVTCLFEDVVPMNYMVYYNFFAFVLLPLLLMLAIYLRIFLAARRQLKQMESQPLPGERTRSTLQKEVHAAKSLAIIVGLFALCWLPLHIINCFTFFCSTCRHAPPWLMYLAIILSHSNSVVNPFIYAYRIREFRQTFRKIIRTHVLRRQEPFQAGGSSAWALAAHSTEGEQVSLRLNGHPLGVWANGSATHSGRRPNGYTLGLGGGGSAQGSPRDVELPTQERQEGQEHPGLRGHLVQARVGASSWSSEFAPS
Experimental: as §1
Adenosine A2: striatum 60 mn at 25° in 50 mM TRIS-ClH buffer (pH 7.7) added with 50 nM cyclopentyladenosine, 10 mM Cl2 Mg and 0.1 Unit/ml […] against 4 nM of [^3 H] NECA (5'-N-ethylcarboxamido adenosine).
as §2

GABAA = test: Affinity for GABAA ([3H]Muscimol); format: binding; settings: rat whole brain; 5 nM [3H]Muscimol, pH 7.2; read-out: CI50 (the source's name)
Experimental: GABAA : whole brain 20 mn at 4° C., in 50 nM TRIS-ClH buffer (pH 7.2) added to 0.5%. TRITON X-100, against 5 nM [^3 H] Muscimol.

GABAB = biological target: T6, GABAB (Rattus norvegicus, UniProt Q9Z0U4); test: Affinity for GABAB ([3H]Baclofen); format: binding
T6 construct: membranar receptors of various rats organs; from tissue; host or cells: rat cerebellum
T6 sequence (Q9Z0U4 17-960 limits assumed): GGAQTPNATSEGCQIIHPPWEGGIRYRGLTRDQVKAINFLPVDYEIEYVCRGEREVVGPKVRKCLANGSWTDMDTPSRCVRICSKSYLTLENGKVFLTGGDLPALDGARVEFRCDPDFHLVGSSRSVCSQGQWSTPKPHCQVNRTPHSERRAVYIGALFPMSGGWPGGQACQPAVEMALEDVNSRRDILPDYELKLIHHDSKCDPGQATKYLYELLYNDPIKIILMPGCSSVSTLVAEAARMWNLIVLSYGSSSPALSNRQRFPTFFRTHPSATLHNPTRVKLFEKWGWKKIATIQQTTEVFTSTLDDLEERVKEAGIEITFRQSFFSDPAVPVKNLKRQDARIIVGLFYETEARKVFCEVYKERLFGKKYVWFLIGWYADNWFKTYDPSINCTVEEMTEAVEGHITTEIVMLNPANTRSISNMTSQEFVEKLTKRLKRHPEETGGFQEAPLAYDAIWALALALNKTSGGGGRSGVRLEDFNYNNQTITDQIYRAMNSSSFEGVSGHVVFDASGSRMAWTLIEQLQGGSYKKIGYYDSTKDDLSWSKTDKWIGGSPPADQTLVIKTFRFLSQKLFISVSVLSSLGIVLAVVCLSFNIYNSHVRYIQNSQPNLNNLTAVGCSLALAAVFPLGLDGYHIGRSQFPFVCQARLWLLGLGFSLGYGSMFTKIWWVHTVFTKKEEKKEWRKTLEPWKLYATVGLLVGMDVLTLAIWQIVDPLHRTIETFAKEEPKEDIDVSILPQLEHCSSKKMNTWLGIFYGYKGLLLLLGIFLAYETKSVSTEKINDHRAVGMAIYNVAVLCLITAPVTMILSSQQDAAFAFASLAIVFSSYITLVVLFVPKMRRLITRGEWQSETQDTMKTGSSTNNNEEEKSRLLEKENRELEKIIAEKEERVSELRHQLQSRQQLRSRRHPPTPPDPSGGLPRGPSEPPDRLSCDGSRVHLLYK
T6 sequence (O88871 41-940 partner): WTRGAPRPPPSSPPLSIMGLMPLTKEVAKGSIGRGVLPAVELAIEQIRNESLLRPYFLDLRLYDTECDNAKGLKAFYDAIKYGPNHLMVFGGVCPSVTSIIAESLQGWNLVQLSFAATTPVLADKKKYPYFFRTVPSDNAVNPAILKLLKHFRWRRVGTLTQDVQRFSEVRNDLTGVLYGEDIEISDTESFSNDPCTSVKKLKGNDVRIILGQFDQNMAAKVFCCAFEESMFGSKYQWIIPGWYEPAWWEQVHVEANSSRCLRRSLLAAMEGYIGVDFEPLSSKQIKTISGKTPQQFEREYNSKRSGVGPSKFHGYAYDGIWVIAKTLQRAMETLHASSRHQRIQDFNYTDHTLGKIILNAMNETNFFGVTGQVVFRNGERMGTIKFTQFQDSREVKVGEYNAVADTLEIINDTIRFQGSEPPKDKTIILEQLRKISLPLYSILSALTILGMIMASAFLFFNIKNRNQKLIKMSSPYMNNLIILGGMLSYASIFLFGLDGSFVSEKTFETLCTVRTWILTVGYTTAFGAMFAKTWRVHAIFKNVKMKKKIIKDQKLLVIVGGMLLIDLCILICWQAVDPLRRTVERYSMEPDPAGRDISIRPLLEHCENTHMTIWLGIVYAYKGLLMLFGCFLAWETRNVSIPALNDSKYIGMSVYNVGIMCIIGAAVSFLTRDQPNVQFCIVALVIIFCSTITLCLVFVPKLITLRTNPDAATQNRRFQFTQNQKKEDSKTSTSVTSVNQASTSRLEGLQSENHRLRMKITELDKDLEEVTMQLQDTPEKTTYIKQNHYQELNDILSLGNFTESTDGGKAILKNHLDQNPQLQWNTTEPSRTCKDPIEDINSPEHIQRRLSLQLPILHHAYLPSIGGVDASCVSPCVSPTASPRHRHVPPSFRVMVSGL
Experimental: as §1
GABAB : Cerebellum, 10 mn at 22° C. in 50 mM TRIS-ClH buffer (pH 7.4) added to 1.2 mM SO^4 Mg and 2.5 mM Cl2 Ca, against 20 nM of [^3 H] Baclofen.
as §2

[5] = tested on: bronchospasm due to histamine; test: Bronchospasm to histamine aerosol in guinea pigs, intraperitoneal; format: in vivo, guinea pig; settings: for ED50: Cavia porcellus, ip, 0.5 h, read-out: ED50 (efficient dosage at 50%) against histamine bronchospasm
Experimental: Inhalating an aerosol at 1%, of histamine (aqeuous solution in distilled water, nebulization with a apparatus HOSPITAK) causes in the guinea pigs, a bronchospasm which leads with immobilization of the animals on their own side. The time needed for the animals to lie down is measured for 5 minutes maximum.

[6] = tested on: bronchospasm due to histamine; test: Bronchospasm to histamine aerosol in guinea pigs, oral; format: in vivo, guinea pig; settings: single dosage 10 mg/kg
Experimental: By oral way the single dosage of 10 mg/kg has been studied as a function of time.

[7] = biological target: T7, H1 receptors of rat cortexes (Rattus norvegicus, UniProt P31390); test: Affinity for H1 receptors, rat cortex membranes ([3H]Mepyramine); format: binding; settings: read-out: CI50 (50% inhibitory concentration) on H1 receptors, 2 nM tritiated Mepyramine, 30 mn, 25° C., pH 7.4
T7 construct: membranar preparations of homogenates of rat cortexes or guinea pig lungs; from tissue; host or cells: rat cortex membranes
T7 sequence (P31390 whole entry): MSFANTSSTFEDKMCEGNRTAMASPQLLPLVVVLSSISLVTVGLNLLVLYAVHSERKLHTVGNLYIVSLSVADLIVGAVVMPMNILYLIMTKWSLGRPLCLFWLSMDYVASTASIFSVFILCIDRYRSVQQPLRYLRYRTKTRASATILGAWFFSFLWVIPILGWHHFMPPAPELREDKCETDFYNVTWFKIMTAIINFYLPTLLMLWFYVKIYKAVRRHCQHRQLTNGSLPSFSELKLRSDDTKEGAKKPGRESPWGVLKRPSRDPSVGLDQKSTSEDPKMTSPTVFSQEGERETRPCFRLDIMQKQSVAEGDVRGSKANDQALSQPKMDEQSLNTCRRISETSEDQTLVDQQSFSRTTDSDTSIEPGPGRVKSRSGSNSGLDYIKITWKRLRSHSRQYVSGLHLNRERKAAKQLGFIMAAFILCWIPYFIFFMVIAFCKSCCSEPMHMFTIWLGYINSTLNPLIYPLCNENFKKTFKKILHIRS
Experimental: (§3) After 30 mn at 25° C. and at pH 7.4, in a 50 mM TRIS-ClH buffer for the membrans of the cortex or a 0.5 M PO4 HNa2 /PO4 H2 K buffer for the lungs membrans, the residual bound fraction of tritiated ligand is counted by scintillation in a liquid medium after filtration on an apparatur of the Brandel's type and several washings.

[8] = biological target: T8, H1-receptors of guinea pigs lungs (Cavia porcellus, UniProt P31389); test: Affinity for H1 receptors, guinea pig lung membranes ([3H]Mepyramine); format: binding; settings: read-out: CI50 (50% inhibitory concentration) on H1 receptors, 2 nM tritiated Mepyramine, 30 mn, 25° C., pH 7.4
T8 construct: membranar preparations of homogenates of rat cortexes or guinea pig lungs; from tissue; host or cells: guinea pig lung membranes
T8 sequence (P31389 whole entry): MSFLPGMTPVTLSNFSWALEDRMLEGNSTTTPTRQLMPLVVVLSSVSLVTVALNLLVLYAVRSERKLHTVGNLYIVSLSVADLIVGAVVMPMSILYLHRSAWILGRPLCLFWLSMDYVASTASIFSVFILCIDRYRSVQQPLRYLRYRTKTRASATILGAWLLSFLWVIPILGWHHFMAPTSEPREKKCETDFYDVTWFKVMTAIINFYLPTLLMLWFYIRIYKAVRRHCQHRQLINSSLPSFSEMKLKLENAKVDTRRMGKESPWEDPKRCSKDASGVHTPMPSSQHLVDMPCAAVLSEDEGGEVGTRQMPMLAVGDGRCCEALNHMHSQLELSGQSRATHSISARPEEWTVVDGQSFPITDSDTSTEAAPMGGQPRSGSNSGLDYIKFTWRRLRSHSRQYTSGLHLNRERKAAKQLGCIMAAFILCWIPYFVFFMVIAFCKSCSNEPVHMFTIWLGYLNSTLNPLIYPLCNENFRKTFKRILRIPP
Experimental: as §3

receptors of H1-type = receptors of H1-type (Cavia porcellus, UniProt P31389); test: Histamine contraction of isolated ileon of guinea pig; settings: for activity compared with Terfenadine on isolated ileon: difference not significant
Chain of receptors of H1-type (P31389 whole entry): as above
Text: The shift of the relationship between contracturing effect and concentration of histamine by the compound to be studied, stamps an anti-H1 activity.

Muscarinic M1 = biological target: T9, Muscarinic M1 (Rattus norvegicus, UniProt P08482); test: Affinity for muscarinic M1 ([3H]-pirenzepine); format: binding; settings: rat cortex, striatum and hypocampus; 2 nM [3H]-pirenzepine, pH 7.4; read-out: CI50 (the source's name)
T9 construct: membranar receptors of various rats organs; from tissue; host or cells: rat cortex, striatum and hippocampus (pool)
T9 sequence (P08482 1-460): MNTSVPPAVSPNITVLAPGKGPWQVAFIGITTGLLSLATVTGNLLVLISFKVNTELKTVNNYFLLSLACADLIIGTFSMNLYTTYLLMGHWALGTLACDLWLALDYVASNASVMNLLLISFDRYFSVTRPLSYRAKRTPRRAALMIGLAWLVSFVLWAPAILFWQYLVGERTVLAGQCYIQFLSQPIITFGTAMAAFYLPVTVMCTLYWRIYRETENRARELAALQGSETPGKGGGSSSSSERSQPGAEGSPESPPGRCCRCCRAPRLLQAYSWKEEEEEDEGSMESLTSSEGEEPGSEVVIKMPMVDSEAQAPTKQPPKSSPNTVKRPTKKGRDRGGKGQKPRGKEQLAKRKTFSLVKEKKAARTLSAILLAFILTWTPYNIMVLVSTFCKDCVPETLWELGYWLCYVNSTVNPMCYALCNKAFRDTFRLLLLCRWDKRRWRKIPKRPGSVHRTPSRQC
Experimental: Muscarinic M1: pool of cortex, striatum and hypocampus, 60 mn at 25° C. in 10 mM PO4 HNa2 /PO4 H2 K buffer (pH 7.4) against 2 nM [^3 H]-pirenzepinc.

[9] = Single maximal non-toxic dosage by oral way in mice; format: in vivo; settings: single oral dosage until 1000 mg/kg
Experimental: On the other side a mydriasis has been noticed after 3 hours. […] This is less fine than the Irvin's Test during which the animals are handled and interact with the experimenter.

[10] = rat cortex, 1 nM [3H]PK 11195, pH 7.4, read-out: CI50 (the source's name)
[11] = rat cortex, 1 nMol [3H]cyclohexyladenosine, pH 7.7, read-out: CI50 (the source's name)
[12] = rat striatum, 4 nM [3H]NECA, pH 7.7, read-out: CI50 (the source's name)
[13] = rat cerebellum, 20 nM [3H]Baclofen, pH 7.4, read-out: CI50 (the source's name)
[14] = intraperitoneal, 10 mg/kg, 30 minutes after administration

## CN(C)CCCN1c2ccccc2Sc2ccc(Cl)cc21 [Chlorpromazine]
[1]; intraperitoneal, from 4 mg/kg
  mice falling before the time granted (120 seconds): 90%

## CN(C)CC[C@@H](c1ccc(Cl)cc1)c1ccccn1 [Dexchlorpheniramine]
[2]; 100 mg/kg, 30 mn
  behavioural alteration (Irwin's test): a hyperactivity and a slight irritability
[2]; 100 mg/kg, 3 hours
  behavioural alteration (hyperactivity and slight irritability): persisting
[2]; 100 mg/kg, 24 hours
  behavioural alteration (hyperactivity and slight irritability): disappearing
[2]; 100 mg/kg, after 3 hours
  ocular effect (Irwin's test): mydriasis

## COc1ccc(CN(CCN(C)C)c2ccccn2)cc1 [Mepyramine]
Muscarinic M2
  IC50: 3.5 µM
Sigma receptor
  IC50: 0.59 µM
Sigma receptor; versus pentazocine
  affinity for Sigma-receptor, times weaker than pentazocine: ~20 times weaker
[3]
  IC50: > 10 µM
[4]; [10]
  IC50: > 10 µM
Adenosine A1; [11]
  IC50: > 10 µM
Adenosine A2; [12]
  IC50: > 10 µM
GABAA
  IC50: > 10 µM
GABAB; [13]
  IC50: > 10 µM

## CC(C)(C)c1ccc(C(O)CCCN2CCC(C(O)(c3ccccc3)c3ccccc3)CC2)cc1 (centres unmarked) [Terfenadine]
[5]
  ED50: ~7 mg/kg
[5]; intraperitoneal
  protection against histamine bronchospasm: poorly efficient
[5]; [14]
  protection against histamine bronchospasm: total protection of all the animals
[6]
  duration of protection against histamine bronchospasm: 4 h
Muscarinic M2
  IC50: > 10 µM
Sigma receptor
  IC50: > 10 µM
[3]
  IC50: > 10 µM
[4]
  IC50: > 10 µM
Adenosine A1
  IC50: > 10 µM
Adenosine A2
  IC50: > 10 µM
GABAA
  IC50: > 10 µM
GABAB
  IC50: > 10 µM

## CC(C)(C)c1ccc(C(O)CCCN2CCN(c3nc4ccccc4n3Cc3ccc(F)cc3)CC2)cc1 (centres unmarked) [example III]
[7]
  IC50: 1.1 µM
[8]
  IC50: 2.7 µM
Receptors of H1-type; 10^-5 M
  effect on histamine contraction of isolated ileon: partially irreversible inhibition
  activity compared with Terfenadine on isolated ileon: the opposite seems to be produced
Receptors of H1-type; 10^-6 M
  effect on histamine contraction of isolated ileon: inhibition of the competitive type
  activity compared with Terfenadine on isolated ileon: slightly more active than Terfenadine
Receptors of H1-type; 10^-7 M
  effect on histamine contraction of isolated ileon: no effect
[5]; intraperitoneal, from regression curve
  ED50: ~6.7 mg/kg
[5]; intraperitoneal
  protection against histamine bronchospasm: poorly efficient
[5]; [14]
  protection against histamine bronchospasm: total protection of all the animals
[6]
  duration of protection against histamine bronchospasm: 12 h
[6]; 24 hours
  animals with total protection (more than 5 minutes) at 24 hours: 50%
Muscarinic M1
  IC50: > 10 µM
Muscarinic M2; pH 7.5, read-out: CI50 (the source's name)
  IC50: > 10 µM
Sigma receptor; rat whole brain, 2 nM [3H](+)3-PPP, pH 8, read-out: CI50 (the source's name)
  IC50: > 10 µM
[3]
  IC50: > 10 µM
[4]; [10]
  IC50: > 10 µM
Adenosine A1; [11]
  IC50: > 10 µM
Adenosine A2; [12]
  IC50: > 10 µM
GABAA
  IC50: > 10 µM
GABAB; [13]
  IC50: > 10 µM
[2]; maximal tested dosage 400 mg/kg, at 3 hours only
  behavioural alteration (Irwin's test): a very weak passivity in half of the animals
[9]
  clinical symptoms, search for maximal non-toxic dosage: do not display any clinical symptom
[1]; oral, until highest tested dosage 100 mg/kg, 30 and 60 mn, versus vehicle
  alteration of rota-rod performance: did not alter the performances
